Assay results as given in patent publication US10988456B2, “O-aminoheteroaryl alkynyl-containing compound, preparation method therefor, and use thereof” (SHANGHAI INSTITUTE OF MATERIA MEDICA, CHINESE ACADEMY OF …, priority 2017, dated 2021).
“Also recorded” adds a separate entry of the source.

What was measured:
FGFR1 = FGFR1 (Homo sapiens, UniProt P11362); assay: Inhibition of receptor tyrosine kinase activity at molecular level (ELISA, Poly(Glu,Tyr)4:1 substrate phosphorylation); format: biochemical; settings: 10 nM compound; average of two independent experiments
Sequence of FGFR1 (P11362 22-822): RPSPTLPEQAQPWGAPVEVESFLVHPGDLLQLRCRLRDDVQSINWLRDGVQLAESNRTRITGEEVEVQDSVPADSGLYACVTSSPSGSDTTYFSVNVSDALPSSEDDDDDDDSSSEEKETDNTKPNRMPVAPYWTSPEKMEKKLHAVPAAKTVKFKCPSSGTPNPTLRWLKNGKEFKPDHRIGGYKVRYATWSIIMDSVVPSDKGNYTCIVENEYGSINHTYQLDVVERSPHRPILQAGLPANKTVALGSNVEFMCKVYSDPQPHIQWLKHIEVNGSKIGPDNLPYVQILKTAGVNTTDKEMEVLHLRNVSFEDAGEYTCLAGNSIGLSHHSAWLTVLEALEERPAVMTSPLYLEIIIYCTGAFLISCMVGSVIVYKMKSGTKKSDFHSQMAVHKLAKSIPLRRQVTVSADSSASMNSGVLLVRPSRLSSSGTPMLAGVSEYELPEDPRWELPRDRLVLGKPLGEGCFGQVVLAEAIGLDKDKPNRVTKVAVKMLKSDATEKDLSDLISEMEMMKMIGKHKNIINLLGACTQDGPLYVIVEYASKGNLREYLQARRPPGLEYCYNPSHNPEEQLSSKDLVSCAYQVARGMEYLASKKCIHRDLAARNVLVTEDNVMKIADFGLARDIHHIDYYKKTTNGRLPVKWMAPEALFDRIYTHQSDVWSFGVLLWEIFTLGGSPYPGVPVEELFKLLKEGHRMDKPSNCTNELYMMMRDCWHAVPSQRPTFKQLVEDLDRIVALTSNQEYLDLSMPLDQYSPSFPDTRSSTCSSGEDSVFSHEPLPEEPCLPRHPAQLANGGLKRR

KDR = KDR (Homo sapiens, UniProt P35968); assay: as above; format: biochemical; settings: 10 nM compound; average of two independent experiments
Sequence of KDR (P35968 20-1356): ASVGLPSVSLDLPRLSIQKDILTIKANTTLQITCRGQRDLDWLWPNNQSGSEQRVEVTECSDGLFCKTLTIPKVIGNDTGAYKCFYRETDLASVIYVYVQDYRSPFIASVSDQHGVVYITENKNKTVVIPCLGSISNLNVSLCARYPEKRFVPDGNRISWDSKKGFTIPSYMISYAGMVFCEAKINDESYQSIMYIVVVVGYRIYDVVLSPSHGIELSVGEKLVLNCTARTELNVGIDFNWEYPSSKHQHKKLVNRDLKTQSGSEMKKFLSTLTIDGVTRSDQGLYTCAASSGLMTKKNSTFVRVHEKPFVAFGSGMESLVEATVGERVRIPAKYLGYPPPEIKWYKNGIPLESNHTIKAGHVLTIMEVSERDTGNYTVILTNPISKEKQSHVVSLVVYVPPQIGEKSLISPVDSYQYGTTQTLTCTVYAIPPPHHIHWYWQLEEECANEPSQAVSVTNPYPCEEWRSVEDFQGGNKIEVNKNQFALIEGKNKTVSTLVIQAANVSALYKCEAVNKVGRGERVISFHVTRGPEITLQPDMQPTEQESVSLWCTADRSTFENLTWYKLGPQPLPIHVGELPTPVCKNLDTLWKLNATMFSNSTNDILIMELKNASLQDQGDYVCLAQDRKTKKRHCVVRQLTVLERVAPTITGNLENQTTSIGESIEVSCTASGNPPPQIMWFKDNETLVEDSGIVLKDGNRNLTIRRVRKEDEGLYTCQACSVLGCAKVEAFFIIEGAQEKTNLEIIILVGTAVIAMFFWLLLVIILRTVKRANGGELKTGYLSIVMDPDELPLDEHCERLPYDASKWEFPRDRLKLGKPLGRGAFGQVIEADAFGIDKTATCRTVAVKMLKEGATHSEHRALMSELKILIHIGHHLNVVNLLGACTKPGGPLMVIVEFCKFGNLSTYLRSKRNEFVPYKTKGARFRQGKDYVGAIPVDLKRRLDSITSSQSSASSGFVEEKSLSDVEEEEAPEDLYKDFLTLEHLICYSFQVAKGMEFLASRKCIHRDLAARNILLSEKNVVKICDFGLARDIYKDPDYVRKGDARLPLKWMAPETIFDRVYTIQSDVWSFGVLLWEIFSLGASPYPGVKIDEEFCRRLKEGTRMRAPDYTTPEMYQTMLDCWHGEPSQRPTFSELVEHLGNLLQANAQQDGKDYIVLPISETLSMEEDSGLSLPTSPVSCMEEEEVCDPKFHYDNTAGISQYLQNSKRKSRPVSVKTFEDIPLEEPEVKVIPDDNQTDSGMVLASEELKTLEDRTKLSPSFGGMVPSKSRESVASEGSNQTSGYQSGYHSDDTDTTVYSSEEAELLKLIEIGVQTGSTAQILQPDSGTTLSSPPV

RET = RET (Homo sapiens, UniProt P07949); assay: as above; format: biochemical
Sequence of RET (P07949 29-1114): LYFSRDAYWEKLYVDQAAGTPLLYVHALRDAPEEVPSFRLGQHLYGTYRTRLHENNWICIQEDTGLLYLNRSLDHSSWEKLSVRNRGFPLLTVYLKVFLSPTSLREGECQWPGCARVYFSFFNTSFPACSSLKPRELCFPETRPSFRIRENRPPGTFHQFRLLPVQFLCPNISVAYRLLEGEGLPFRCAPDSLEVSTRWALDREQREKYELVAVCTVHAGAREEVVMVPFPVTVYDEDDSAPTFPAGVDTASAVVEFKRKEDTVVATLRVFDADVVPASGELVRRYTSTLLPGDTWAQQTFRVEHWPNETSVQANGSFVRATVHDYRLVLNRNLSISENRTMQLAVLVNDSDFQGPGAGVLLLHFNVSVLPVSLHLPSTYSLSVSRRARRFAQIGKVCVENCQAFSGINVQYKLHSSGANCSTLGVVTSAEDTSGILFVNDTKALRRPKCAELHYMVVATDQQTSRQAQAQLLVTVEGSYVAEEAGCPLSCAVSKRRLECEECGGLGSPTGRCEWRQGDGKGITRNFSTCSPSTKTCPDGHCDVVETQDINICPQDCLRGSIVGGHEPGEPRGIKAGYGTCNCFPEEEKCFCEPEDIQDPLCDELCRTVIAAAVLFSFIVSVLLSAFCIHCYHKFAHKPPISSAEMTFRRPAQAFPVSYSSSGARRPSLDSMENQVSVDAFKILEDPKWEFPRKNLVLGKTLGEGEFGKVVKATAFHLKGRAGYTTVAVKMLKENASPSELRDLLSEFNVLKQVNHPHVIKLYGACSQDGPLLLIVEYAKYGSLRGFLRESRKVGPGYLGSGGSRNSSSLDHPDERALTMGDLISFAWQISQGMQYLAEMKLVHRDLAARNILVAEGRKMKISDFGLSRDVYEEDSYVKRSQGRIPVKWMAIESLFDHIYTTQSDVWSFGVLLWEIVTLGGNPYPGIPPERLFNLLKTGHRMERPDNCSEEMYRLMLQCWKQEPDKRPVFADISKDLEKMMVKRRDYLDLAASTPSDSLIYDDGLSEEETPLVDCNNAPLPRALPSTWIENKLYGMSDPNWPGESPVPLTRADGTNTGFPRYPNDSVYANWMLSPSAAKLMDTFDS
How it was run: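 Poly(Glu,Tyr)4:1-coated plates (20 μg/mL) were incubated with recombinant kinase, compound and 5 μM ATP (final) in HEPES pH 7.4 buffer with MgCl2/MnCl2/Na3VO4/DTT for 1 h at 37 °C. Phosphotyrosine was detected with PY99 and HRP anti-mouse IgG plus OPD at 490 nm. IC50 came from four-parameter regression.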

Ret (V804M) = molecular target: T1, Ret (V804M) (Homo sapiens, UniProt P07949, V804M); assay: Inhibition of RET-related mutant enzyme activity (ELISA); format: biochemical; settings: measured twice, Mean ± SD
T1 construct: purchased
T1 sequence (P07949 29-1114 V804M): as the sequence (P07949 29-1114) above, with V776M counted along it
Method: Enzyme reaction substrate Poly(Glu, Tyr)4:1 was diluted with potassium-free PBS (10 mM sodium phosphate buffer, 150 mM NaCl, pH 7.2-7.4) to 20 μg/mL. The enzyme label plate was coated with 125 μL/well. The reaction was conducted under 37° C. for 12-16 hours. After the liquid was removed from the wells, the plate was washed three times with 200 μL/well of T-PBS (PBS containing 0.1% Tween-20), each for 5 minutes. The enzyme plate was dried in 37° C. dryer for 1-2 hours.
50 μL ATP solution diluted with buffer (50 mM HEPES pH 7.4, 50 mM MgCl2, 0.5 mM MnCl2, 0.2 mM Na3VO4, 1 mM DTT) to a final concentration of 5 μM was added into each well. The compound was diluted with DMSO to a suitable concentration (1 μL/well) or the well contained the corresponding concentration of DMSO (negative control well) Then various kinase recombinant proteins diluted with 49 μL of reaction buffer was added to initiate the reaction. Each experiment required duplicate enzyme-free control well. The reaction was carried out for 1 hour on a 37° C. Shaker (100 rpm). […] The reaction was quenched with 2M H2SO4 (50 μL/well), and read at 490 nm using a tunable microplate reader SPECTRA MAX 190.
The inhibition ratio of the sample was determined by the following formula: […]
The IC50 values were obtained via four-parameter regression analysis using the software supplied with the microplate reader. […]

[1] = test system: RET signaling pathway in TT and BaF3/CCDC6-RET cells; assay: Western blotting of RET signaling pathway activation in cells; format: cell-based; settings: compounds 2 hours; P-RET, P-AKT, P-ErK
Method: Detecting the Effect of Compounds on the Activation of RET Signaling Pathway in TT and BaF3/CCDC6-RET Cells by Western Blotting
The cells were seeded into a 12-well plate (250,000/well). After incubation for 18-24 hours, the compounds were added to react for 2 hours, and then the cells were collected and firstly washed once with cold PBS (containing 1 mmol sodium vanadate); then 1×SDS gel loading buffer (50 mmol Tris-HCl (pH 6.8), 100 mmol DTT, 2% SDS, 10% glycerol, 1 mmol sodium vanadate, 0.1% bromophenol blue) was added to lyse cells. The cell lysate was heated in a boiling water bath for 10 minutes, and then centrifuged at 12,000 rpm for 10 minutes at 4° C.
The supernatant was taken for SDS-PAGE electrophoresis (Mini-PROTEAN 3 Cell, Bio-Rad, Hercules, Calif., USA). After electrophoresis, the proteins were transferred to a nitrocellulose membrane using a semi-dry electrotransfer system (Amersham Life Sciences, Arlington Heights, Ill., USA). The nitrocellulose membrane was placed in a blocking solution (5% skim milk powder diluted in TBS containing 1 mmol sodium vanadate) for 2 hours at room temperature, and then the membrane was placed and reacted with a primary antibody at 4° C. overnight. […] The membrane was placed in a secondary antibody solution and reacted for 1-2 hours at room temperature. After the membrane was washed three times as above, the membrane was stained using ECL (Picece, Rockford, Ill.) reagent was used for staining and then developed.

[2] = test system: human gastric cancer SNU-16 xenografts; assay: Growth of subcutaneous xenografts of human gastric cancer SNU-16 in nude mice (HuFGFR267 study); format: in vivo; settings: for relative tumor proliferation rate T/C: day 21; for Weight (g, mean ± SD): SNU-16 tumor-bearing mice
Method: The diameter of the subcutaneously implanted tumor in nude mice was measured by a vernier caliper. […] In the compound HuFGFR267 50 mg/kg group, the compound was formulated with 0.5% methylcellulose (MC) to the required concentration before use. […] The positive control drug AZD4547 was diluted to the required concentration with water for injection containing 1% Tween 80 before use. […] In the solvent control group, an equal amount of water for injection was administrated.

## CN1CCN(Cc2ccc(NC(=O)c3ccc(Cl)c(C#Cc4cccnc4N)c3)cc2C(F)(F)F)CC1 [Example 1, 3-(2-aminopyridine-3-ethynyl)-4-chloro-N-(4-((4-methylpiperazin-1-yl)methylene)-3-(trifluoromethyl)phenyl)benzamide]
FGFR1
  10 nM inhibition ratio FGFR1: 77.7
KDR
  10 nM inhibition ratio KDR: 45.1
RET; 10 nM compound, average of two independent experiments
  10 nM inhibition ratio RET: 87.6
RET; measured twice, Mean ± SD
  IC50: 1.4 ± 0.6 nM
Ret (V804M)
  IC50: 8.4 ± 1.7 nM
[1]
  inhibition of RET phosphorylation and downstream signaling pathway (Western blot, FIG. 1): inhibited RET phosphorylation and the downstream signaling pathway
[2]; SNU-16, 25 mg/kg orally once a day for 21 days
  relative tumor proliferation rate T/C: 18.55%
[2]; SNU-16, 25 mg/kg orally once a day, d0
  Relative tumor volume RTV (mean ± SD): 1.00 ± 0.00
[2]; SNU-16, 25 mg/kg orally once a day, d3
  Relative tumor volume RTV (mean ± SD): 1.74 ± 0.58
[2]; SNU-16, 25 mg/kg orally once a day, d7
  Relative tumor volume RTV (mean ± SD): 2.51 ± 0.93
[2]; SNU-16, 25 mg/kg orally once a day, d10
  Relative tumor volume RTV (mean ± SD): 3.13 ± 1.51
[2]; SNU-16, 25 mg/kg orally once a day, d14
  Relative tumor volume RTV (mean ± SD): 3.79 ± 1.93
[2]; SNU-16, 25 mg/kg orally once a day, d17
  Relative tumor volume RTV (mean ± SD): 3.97 ± 1.58
[2]; SNU-16, 25 mg/kg orally once a day, d21
  Relative tumor volume RTV (mean ± SD): 4.35 ± 2.03
[2]; SNU-16, 50 mg/kg orally once a day for 21 days
  relative tumor proliferation rate T/C: 11.66%
[2]; SNU-16, 50 mg/kg orally once a day, d0
  Relative tumor volume RTV (mean ± SD): 1.00 ± 0.00
[2]; SNU-16, 50 mg/kg orally once a day, d3
  Relative tumor volume RTV (mean ± SD): 1.11 ± 0.42
[2]; SNU-16, 50 mg/kg orally once a day, d7
  Relative tumor volume RTV (mean ± SD): 0.83 ± 0.49
[2]; SNU-16, 50 mg/kg orally once a day, d10
  Relative tumor volume RTV (mean ± SD): 1.26 ± 0.71
[2]; SNU-16, 50 mg/kg orally once a day, d14
  Relative tumor volume RTV (mean ± SD): 1.89 ± 1.57
[2]; SNU-16, 50 mg/kg orally once a day, d17
  Relative tumor volume RTV (mean ± SD): 2.02 ± 1.63
[2]; SNU-16, 50 mg/kg orally once a day, d21
  Relative tumor volume RTV (mean ± SD): 2.73 ± 2.82
[2]; SNU-16, HuFGFR267 50 mg/kg and 25 mg/kg groups
  body weight of tumor-bearing mice (in words): no significant change; also recorded: did not change significantly
[2]; SNU-16, each group (HuFGFR267 50 and 25 mg/kg, AZD4547 12.5 mg/kg)
  animal deaths during the experiment: no mice died
[2]; 25 mg/kg orally once a day, d0
  Weight (g, mean ± SD): 18.6 ± 1.6 g
[2]; 25 mg/kg orally once a day, d3
  Weight (g, mean ± SD): 19.4 ± 1.7 g
[2]; 25 mg/kg orally once a day, d7
  Weight (g, mean ± SD): 20.0 ± 1.8 g
[2]; 25 mg/kg orally once a day, d10
  Weight (g, mean ± SD): 20.9 ± 1.8 g
[2]; 25 mg/kg orally once a day, d14
  Weight (g, mean ± SD): 21.3 ± 1.7 g
[2]; 25 mg/kg orally once a day, d17
  Weight (g, mean ± SD): 21.2 ± 1.6 g
[2]; 25 mg/kg orally once a day, d21
  Weight (g, mean ± SD): 21.4 ± 1.8 g
[2]; 50 mg/kg orally once a day, d0
  Weight (g, mean ± SD): 18.9 ± 1.9 g
[2]; 50 mg/kg orally once a day, d3
  Weight (g, mean ± SD): 19.4 ± 2.2 g
[2]; 50 mg/kg orally once a day, d7
  Weight (g, mean ± SD): 19.9 ± 2.4 g
[2]; 50 mg/kg orally once a day, d10
  Weight (g, mean ± SD): 20.6 ± 2.3 g
[2]; 50 mg/kg orally once a day, d14
  Weight (g, mean ± SD): 20.5 ± 2.2 g
[2]; 50 mg/kg orally once a day, d17
  Weight (g, mean ± SD): 20.8 ± 2.3 g
[2]; 50 mg/kg orally once a day, d21
  Weight (g, mean ± SD): 20.7 ± 2.2 g
